Read-outs that look alike come from different tables or passages of the source.
What was measured:
NCI-H522 = test: NCI growth inhibition (SRB) assay; type: cell-based; settings: Homo sapiens, NCI-H522, Non-Small Cell Lung Cancer, single dose 10 µM, 48 h, read-out: Percent Growth Inhibition (GI)
Protocol: (§1) The antitumor assay was performed according to the protocol of the Drug Evaluation Branch, NCI, Bethesda. A 48 h drug exposure protocol was adopted, and sulforhodamine B (SRB) assay was utilized to assess the cell growth and viability, as reported earlier.
(§2) The inhibition results of tumor cell growth by the newly synthesized compounds (5a–5g) are described in Table 4. The reported measurements have been performed at the NIH National Cancer Institute, USA by a standardized assay including a panel of 60 different tumor cell lines (Supplementary Data). The following cancer cell types were included in these assays: Leukemia, non-small cell lung cancer, colon cancer, CNS cancer, melanoma, ovarian cancer, renal cancer, prostate, and breast cancer. […] Additionally, the 3,4-dimethoxy substituted compound (5b) also suffered poor activity against the cancer cell lines.

SF-539 = test: NCI growth inhibition (SRB) assay; type: cell-based; settings: Homo sapiens, SF-539, CNS Cancer, single dose 10 µM, 48 h, read-out: Percent Growth Inhibition (GI)
Protocol: as §1, §2

MOLT-4 = test: NCI growth inhibition (SRB) assay; type: cell-based; settings: Homo sapiens, MOLT-4, Leukemia, single dose 10 µM, 48 h, read-out: Percent Growth Inhibition (GI)
Protocol: as §1, §2

CAKI-1 = test: NCI growth inhibition (SRB) assay; type: cell-based; settings: Homo sapiens, CAKI-1, Renal Cancer, single dose 10 µM, 48 h, read-out: Percent Growth Inhibition (GI)
Protocol: as §1, §2

UO-31 = test: NCI growth inhibition (SRB) assay; type: cell-based; settings: Homo sapiens, UO-31, Renal Cancer, single dose 10 µM, 48 h, read-out: Percent Growth Inhibition (GI)
Protocol: as §1, §2

SNB-75 = test: NCI growth inhibition (SRB) assay; type: cell-based; settings: Homo sapiens, SNB-75, CNS Cancer, single dose 10 µM, 48 h, read-out: Percent Growth Inhibition (GI)
Protocol: as §1, §2

PC-3 = test: NCI growth inhibition (SRB) assay; type: cell-based; settings: Homo sapiens, PC-3, Prostate Cancer, single dose 10 µM, 48 h, read-out: Percent Growth Inhibition (GI)
Protocol: as §1, §2

MCF7 = test: NCI growth inhibition (SRB) assay; type: cell-based; settings: Homo sapiens, MCF7, Breast Cancer, single dose 10 µM, 48 h, read-out: Percent Growth Inhibition (GI)
Protocol: as §1, §2

HT29 = test: NCI growth inhibition (SRB) assay; type: cell-based; settings: Homo sapiens, HT-29, HT29, Colon Cancer, single dose 10 µM, 48 h, read-out: Percent Growth Inhibition (GI)
Protocol: as §1, §2

HCT-15 = test: NCI growth inhibition (SRB) assay; type: cell-based; settings: Homo sapiens, HCT-15, Colon Cancer, single dose 10 µM, 48 h, read-out: Percent Growth Inhibition (GI)
Protocol: as §1, §2

RPMI-8226 = test: NCI growth inhibition (SRB) assay; type: cell-based; settings: Homo sapiens, RPMI-8226, Leukemia, single dose 10 µM, 48 h, read-out: Percent Growth Inhibition (GI)
Protocol: as §1, §2

RXF 393 = test: NCI growth inhibition (SRB) assay; type: cell-based; settings: RXF 393, Renal Cancer, single dose 10 µM; for inhibition at 10 µM: Homo sapiens, read-out: Percent Growth Inhibition (GI)
Protocol: as §1, §2

HL-60(TB) = test: NCI growth inhibition (SRB) assay; type: cell-based; settings: Homo sapiens, Leukemia, single dose 10 µM, 48 h, read-out: Percent Growth Inhibition (GI)
Protocol: as §1, §2

UACC-62 = test: NCI growth inhibition (SRB) assay; type: cell-based; settings: Homo sapiens, UACC-62, Melanoma, single dose 10 µM, 48 h, read-out: Percent Growth Inhibition (GI)
Protocol: as §1, §2

HCT-116 = test: NCI growth inhibition (SRB) assay; type: cell-based; settings: Homo sapiens, HCT-116, Colon Cancer, single dose 10 µM, 48 h, read-out: Percent Growth Inhibition (GI)
Protocol: as §1, §2

HS 578T = test: NCI growth inhibition (SRB) assay; type: cell-based; settings: Homo sapiens, Breast Cancer, single dose 10 µM, 48 h, read-out: Percent Growth Inhibition (GI)
Protocol: as §1, §2

LYN = biological target: T1, LYN (Homo sapiens, UniProt P07948); test: In vitro kinase inhibition assay (HotSpot, Reaction Biology); type: biochemical; settings: for inhibition at 10 µM: single dose of 10 µM, 10 µM ATP as printed, read-out: Percent Inhibition, LYN
T1 construct: purchased Reaction Biology Corp
Protocol: (§3) The in vitro kinase inhibition assay was carried out by Reaction Biology Corp. (Reaction Biology Corp., Chester, PA, USA) Kinase HotSpot^SM service (http://www.reactionbiology.com, accessed on 15 January 2021), following the previously reported methods. (For details, see Supplementary Material).
(§4) As mentioned in the introduction, to get insights about the kinase inhibition profile of the hybrid small molecule 5a, an in vitro screening over a panel of 14 cancer-related kinases was carried out. Accordingly, 10 µM concentrations of compound 5a were used in a kinase inhibition assay over various kinase groups and families in the presence of 10 µM ATP using HotSpotSM technology. To get a comprehensive picture of the inhibitory activities of the tested compound (5a) against the kinase panel, data are illustrated in Table 1. […] Compound 5a was also able to suppress the kinase activity of the epidermal growth factor receptor (EGFR), platelet-derived growth factor receptor-alpha (PDGFRα), and cyclin-dependent kinase 2 (CDK2) with modest inhibition values of 26.99 ± 0.9, 24.0 ± 0.4, and 20.1 ± 0.1%, respectively. […] Several studies have confirmed direct relationships between the most affected kinases (FMS, LCK, LYN, and DAPK1) and different human disorders including cancer.
(§5) 5. Protocol of Kinase assay
(§6) Kinases inhibitory activities were assessed by the HotSpot assay platform, which contained specific kinase/substrate pairs along with required cofactors. Base reaction buffer: 20 mM Hepes (pH 7.5), 10 mM MgCl2, 1 mM EGTA, 0.02% Brij35, 0.02 mg/ml BSA, 0.1 mM Na3VO4, 2 mM DTT, 1% DMSO. Testing compounds were dissolved in 100% DMSO to specific concentration. The serial dilution was conducted by Integra Viaflo Assist in DMSO. The reaction mixture containing the examined compound and 33P-ATP was incubated at room temperature for 2h and radioactivity was detected by filter-binding method. Kinase activity data were expressed as the percent remaining kinase activity in test samples compared to vehicle (dimethyl sulfoxide) reactions. IC50 values and curve fits were obtained using Prism (GraphPad Software).
(§7) 6. Biology raw data for IC50 determination
(§8) Paper ID Cpd ID NSC Number

LCK = biological target: T2, LCK (Homo sapiens, UniProt P06239); test: as above; type: biochemical; settings: for inhibition at 10 µM: single dose of 10 µM, 10 µM ATP as printed, read-out: Percent Inhibition, LCK
T2 construct: purchased Reaction Biology Corp
Protocol: as §3, §4, §5, §6, §7, §8

DAPK1 = biological target: T3, DAPK1 (Homo sapiens, UniProt P53355); test: as above; type: biochemical; settings: single dose of 10 µM; read-out: Percent Inhibition, DAPK1
T3 construct: purchased Reaction Biology Corp
Protocol: as §3, §4, §5, §6, §7, §8

[1] = 10-dose, 3-fold serial dilution starting at 100 μM

T2 sequence (P06239 whole entry): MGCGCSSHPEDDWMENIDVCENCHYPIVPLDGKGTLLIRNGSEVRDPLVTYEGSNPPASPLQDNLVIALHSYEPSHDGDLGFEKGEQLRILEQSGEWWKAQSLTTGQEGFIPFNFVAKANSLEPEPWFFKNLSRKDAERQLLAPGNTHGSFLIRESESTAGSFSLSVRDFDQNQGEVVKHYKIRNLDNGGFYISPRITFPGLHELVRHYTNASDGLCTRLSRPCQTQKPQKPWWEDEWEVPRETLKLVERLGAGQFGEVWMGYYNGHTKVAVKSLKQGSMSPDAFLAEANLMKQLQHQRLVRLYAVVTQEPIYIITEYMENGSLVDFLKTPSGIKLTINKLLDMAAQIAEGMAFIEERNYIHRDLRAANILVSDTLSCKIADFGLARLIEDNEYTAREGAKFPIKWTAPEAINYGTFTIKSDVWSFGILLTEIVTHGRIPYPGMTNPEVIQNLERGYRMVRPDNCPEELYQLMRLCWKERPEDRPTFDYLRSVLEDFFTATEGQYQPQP
T1 sequence (P07948 whole entry): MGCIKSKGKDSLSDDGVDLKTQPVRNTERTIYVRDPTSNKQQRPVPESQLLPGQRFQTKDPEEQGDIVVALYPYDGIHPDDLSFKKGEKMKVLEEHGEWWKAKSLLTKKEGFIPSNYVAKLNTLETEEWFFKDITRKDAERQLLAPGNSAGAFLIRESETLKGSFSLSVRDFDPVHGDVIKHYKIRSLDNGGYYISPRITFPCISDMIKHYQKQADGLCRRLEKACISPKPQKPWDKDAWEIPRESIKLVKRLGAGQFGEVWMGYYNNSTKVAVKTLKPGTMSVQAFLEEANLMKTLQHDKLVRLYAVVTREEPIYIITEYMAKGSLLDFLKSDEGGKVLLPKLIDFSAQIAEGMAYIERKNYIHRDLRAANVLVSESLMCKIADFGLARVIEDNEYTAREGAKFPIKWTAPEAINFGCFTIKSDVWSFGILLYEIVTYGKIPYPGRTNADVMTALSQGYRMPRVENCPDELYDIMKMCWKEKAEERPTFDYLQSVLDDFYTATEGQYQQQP
T3 sequence (P53355 whole entry): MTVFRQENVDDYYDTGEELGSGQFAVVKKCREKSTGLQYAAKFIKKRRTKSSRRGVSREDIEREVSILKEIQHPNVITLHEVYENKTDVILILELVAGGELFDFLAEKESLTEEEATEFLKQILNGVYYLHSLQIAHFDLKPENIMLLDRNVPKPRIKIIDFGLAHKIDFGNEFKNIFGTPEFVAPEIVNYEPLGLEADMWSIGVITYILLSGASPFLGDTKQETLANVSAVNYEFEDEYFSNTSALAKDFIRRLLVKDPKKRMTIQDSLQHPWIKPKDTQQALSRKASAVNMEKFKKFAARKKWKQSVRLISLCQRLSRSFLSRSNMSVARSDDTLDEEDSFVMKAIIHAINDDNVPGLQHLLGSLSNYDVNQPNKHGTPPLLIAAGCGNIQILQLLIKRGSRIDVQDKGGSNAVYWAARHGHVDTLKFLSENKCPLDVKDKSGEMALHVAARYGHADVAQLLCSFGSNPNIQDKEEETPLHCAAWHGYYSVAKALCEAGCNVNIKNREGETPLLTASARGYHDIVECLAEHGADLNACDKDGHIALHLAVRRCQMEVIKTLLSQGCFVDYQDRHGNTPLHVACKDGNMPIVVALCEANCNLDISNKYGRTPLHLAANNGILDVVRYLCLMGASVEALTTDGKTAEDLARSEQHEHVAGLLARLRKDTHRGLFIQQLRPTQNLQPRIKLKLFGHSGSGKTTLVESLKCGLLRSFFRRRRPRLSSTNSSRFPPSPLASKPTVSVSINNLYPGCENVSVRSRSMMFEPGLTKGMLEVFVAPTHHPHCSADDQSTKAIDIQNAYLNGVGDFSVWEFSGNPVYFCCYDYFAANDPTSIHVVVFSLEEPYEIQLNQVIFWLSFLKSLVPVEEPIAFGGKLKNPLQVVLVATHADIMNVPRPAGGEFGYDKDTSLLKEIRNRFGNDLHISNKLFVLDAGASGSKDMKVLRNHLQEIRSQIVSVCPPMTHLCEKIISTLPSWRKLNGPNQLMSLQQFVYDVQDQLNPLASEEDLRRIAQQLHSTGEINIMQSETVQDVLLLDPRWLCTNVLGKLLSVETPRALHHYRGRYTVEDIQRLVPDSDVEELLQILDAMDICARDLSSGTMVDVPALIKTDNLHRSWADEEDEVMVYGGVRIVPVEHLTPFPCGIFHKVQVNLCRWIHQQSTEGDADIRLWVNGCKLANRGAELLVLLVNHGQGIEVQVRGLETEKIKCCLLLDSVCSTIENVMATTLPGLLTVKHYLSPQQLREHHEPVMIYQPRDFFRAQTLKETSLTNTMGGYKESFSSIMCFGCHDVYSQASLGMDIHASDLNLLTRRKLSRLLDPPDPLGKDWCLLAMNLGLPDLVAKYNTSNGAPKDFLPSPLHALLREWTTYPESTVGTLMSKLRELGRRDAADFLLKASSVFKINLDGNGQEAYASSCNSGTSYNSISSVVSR

SMILES | inhibition at 10 µM (NCI-H522) [%] | inhibition at 10 µM (SF-539) [%] | inhibition at 10 µM (MOLT-4) [%] | inhibition at 10 µM (CAKI-1) [%] | inhibition at 10 µM (UO-31) [%] | inhibition at 10 µM (SNB-75) [%] | inhibition at 10 µM (PC-3) [%] | inhibition at 10 µM (MCF7) [%] | inhibition at 10 µM (HT29) [%] | inhibition at 10 µM (HCT-15) [%] | inhibition at 10 µM (RPMI-8226) [%] | inhibition at 10 µM (HL-60(TB)) [%] | inhibition at 10 µM (UACC-62) [%] | inhibition at 10 µM (HCT-116) [%] | inhibition at 10 µM (HS 578T) [%] | inhibition at 10 µM (LYN) [%] | inhibition at 10 µM (LCK) [%] | inhibition at 10 µM (DAPK1) [%] | inhibition at 10 µM (RXF 393; 48 h) [%] | other results
COc1ccc(Oc2nc(Nc3ccc(N4CCOCC4)cc3)ncc2NC(=O)c2cccc(SC)c2)cc1 [5g, N-(4-(4-Methoxyphenoxy)-2-((4-morpholinophenyl)amino)pyrimidin-5-yl)-3-(methylthio)benzamide] | 26.4 | 21.1 | 43.1 | 29.4 | 43.7 | 21.5 | 24.9 | 21.5 | 24.3 | 31.7 | 20.5 | 13.9 | 14.7 | 23.7 | 22.7 | 96.4 ± 0.1 | 96.9 ± 0.3 | 54.6 ± 0.8 | – | inhibition at 10 µM (RXF 393; RXF 393, 48 h): 70%; Percent Growth Inhibition (GI) (RXF 393; 48 h): 70.1%; IC50 (LYN; [1]): 169 ± 31 nM; IC50 (LCK; [1]): 87.7 ± 8.3 nM; fold more potent than imatinib over LCK (LCK; from IC50 values): ~2 fold
COc1ccc(Oc2nc(Nc3ccc(N4CCOCC4)cc3)ncc2NC(=O)c2cc(OC)c(OC)c(OC)c2)cc1 [5c, 3,4,5-Trimethoxy-N-(4-(4-methoxyphenoxy)-2-((4-morpholinophenyl)amino)pyrimidin-5-yl)benzamide] | 2.25 | 7.64 | 31.6 | 28.1 | 42.3 | 3.59 | 11.6 | 7.94 | 47.4 | 34.4 | 18.8 | 31 | -0.63 | 23.9 | 3.23 | -1.6 ± 0.3 | 19.4 ± 0.9 | 50 ± 0.1 | 50.6 | –
COc1ccc(Oc2nc(Nc3ccc(N4CCOCC4)cc3)ncc2NC(=O)c2ccnc([N+](=O)[O-])c2)cc1 [5f, N-(4-(4-Methoxyphenoxy)-2-((4-morpholinophenyl)amino)pyrimidin-5-yl)-2-nitroisonicotinamide] | 9.77 | 7.72 | -5.98 | 13.7 | 29 | -4.97 | 13.8 | 12.5 | -8.86 | 32.8 | 16.3 | -3.19 | 21.4 | -0.19 | 6.7 | 34.1 ± 2.2 | 72.6 ± 0.6 | 65.5 ± 1.4 | -0.36 | –
COc1ccc(Oc2nc(Nc3ccc(N4CCOCC4)cc3)ncc2NC(=O)Cc2cc(OC)cc(OC)c2)cc1 [5e, 2-(3,5-Dimethoxyphenyl)-N-(4-(4-methoxyphenoxy)-2-((4-morpholinophenyl)amino)pyrimidin-5-yl)acetamide] | 8.4 | 2.09 | -0.81 | -2.58 | 19.4 | -3.1 | 8.05 | 18.9 | -8.47 | 1.13 | 11.3 | -6.34 | 1.34 | 0.34 | 1.64 | 7.9 ± 0.4 | 39.5 ± 0.4 | 47.1 ± 0.7 | -8.16 | –
CCOc1cc(OCC)cc(C(=O)Nc2cnc(Nc3ccc(N4CCOCC4)cc3)nc2Oc2ccc(OC)cc2)c1 [5d, 3,5-Diethoxy-N-(4-(4-methoxyphenoxy)-2-((4-morpholinophenyl)amino)pyrimidin-5-yl)benzamide] | 29.8 | 8.01 | 38.2 | 20.6 | 29.9 | 19.2 | 27.3 | 14.4 | 9.54 | 13.2 | 25.6 | 22.8 | 12 | 6.73 | 7.96 | 31.5 ± 5.8 | 38.3 ± 4.2 | 51.6 ± 0.5 | 27.5 | –

Source: publication PMC8468039, “Development of New Meridianin/Leucettine-Derived Hybrid Small Molecules as Nanomolar Multi-Kinase Inhibitors with Antitumor Activity” (Biomedicines, 2021)
